The experiment deals with T1, Human BAK-∆TM-His6 (BAK) (Homo sapiens, UniProt Q16611).
T1 construct: C-terminus truncated recombinant human BAK containing C-terminal 6× histidine tag (MEAS-BAK); made in house; host or cells: E. coli T7 Express pLac I/Y
T1 sequence (Q16611 1-186 limits assumed): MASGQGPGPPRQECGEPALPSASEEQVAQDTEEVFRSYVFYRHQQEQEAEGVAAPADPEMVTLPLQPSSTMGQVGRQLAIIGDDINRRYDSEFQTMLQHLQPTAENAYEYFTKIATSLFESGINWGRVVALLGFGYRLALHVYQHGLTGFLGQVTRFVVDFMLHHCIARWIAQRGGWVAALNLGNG
Put plainly: Liposome permeabilization assay (ANTS/DPX dye release from LUVs): activation of WT BAK by BH3 peptides.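 On AUC for Experiment-2 (Mean): traces normalized between buffer minimum and 3% CHAPS maximum fluorescence.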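 On AUC for Experiment-3 (Mean): traces normalized between buffer minimum and 3% CHAPS maximum fluorescence.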 Type of experiment: biochemical. The arrangement: AUC for Experiment-2 (Mean) / AUC for Experiment-3 (Mean) / AUC for Experiment-1 (Mean):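 traces normalized between buffer minimum and 3% CHAPS maximum fluorescence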. Conditions: for AUC for Experiment-1 (Mean) / AUC for Experiment-2 (Mean) / AUC for Experiment-3 (Mean): AUC 0-88 mins of liposome permeabilization; for AUC for Experiment-1 (Mean): Experiment-1, mean of N replicates; for AUC for Experiment-2 (Mean): Experiment-2, mean of N replicates; for AUC for Experiment-3 (Mean): Experiment-3, mean of N replicates; for EC50: Fig. 4e, AUC vs peptide dose (Suppl. Fig. 6b), n = 2 experiments each of n = 3 technical replicates, read-out: EC50 LP; for EC50 / direct BAK activation compared to WT BID BH3: 50 nM BAK; for direct BAK activation compared to WT BID BH3: liposome permeabilization, Fig. 4c, e. The procedure: We performed liposome permeabilization assays as previously described[43]–[46]. […] We mixed the lipid film in ANTS/DPX solution by vortexing and sonication (~15 min) followed by extrusion through polycarbonate membrane of 2 μm pore size (Avanti Polar lipids) to generate homogenous large unilamellar vesicles (LUVs). We separated LUVs from free ANTS/DPX by S500 size exclusion chromatography and stored them at 4 °C in the dark. We prepared peptide and protein dilutions in 96-well black flat bottom plates (Costar) kept on ice. […] We quantified liposome permabilization by integrating area under curve (AUC) of normalized traces based on the Simpson’s equation, and analyzed that data in Excel and GraphPad Prism. AUC measurements reflect the kinetic and extent of liposome permeabilization and provide quantitative means for comparison between different experimental conditions (e.g., BAK mutants with gross or partial variation in activity).

Marks after values point to notes of the source that are not given here.

Experimental findings from paper PMC8752837, “Structural basis of BAK activation in mitochondrial apoptosis initiation” (Nature Communications, 2022) are described below.

On to Ac-EDIIRNIARHFAQVGDSMDRSI-NH2 [F(2)], for which the concentration for a half-maximal effect (EC50) was found to be 290 ± 42.6 nM. Also, under “1 μM peptide + 50 nM BAK”, the “AUC for Experiment-1 (Mean)” value was 10.629, the “AUC for Experiment-2 (Mean)” value is 6.9165 and the “AUC for Experiment-3 (Mean)” value stood at 10.58. Moreover, for the setting “50 μM peptide + 50 nM BAK”, the “AUC for Experiment-1 (Mean)” value was found to be 9.2417, the “AUC for Experiment-2 (Mean)” value was determined as 6.0451 and the “AUC for Experiment-3 (Mean)” value was 8.2141.
Consider Ac-EDIIRNIARHMAQVGDSMDRSI-NH2 [M(2)], for which the half-maximal effective concentration (EC50) is 366 ± 89.2 nM. Further, under “1 μM peptide + 50 nM BAK”, the “AUC for Experiment-1 (Mean)” value stood at 8.056, the “AUC for Experiment-2 (Mean)” value turned out to be 3.548 and the “AUC for Experiment-3 (Mean)” value was 5.055. Under “50 μM peptide + 50 nM BAK”, the “AUC for Experiment-1 (Mean)” value was determined as 8.1746, the “AUC for Experiment-2 (Mean)” value came to 3.897 and the “AUC for Experiment-3 (Mean)” value was determined as 7.008.
Take Ac-EDIIRNIARHWAQVGDSMDRSI-NH2 [W(2)]: the 50% effective concentration (EC50) was found to be 1080 ± 453 nM and the “direct BAK activation compared to WT BID BH3” value was “less direct BAK activation compared to WT BID BH3”. Under “1 μM peptide + 50 nM BAK”, the “AUC for Experiment-1 (Mean)” value was 4.9093, the “AUC for Experiment-2 (Mean)” value is reported as 3.613 and the “AUC for Experiment-3 (Mean)” value stood at 3.7546. Under “50 μM peptide + 50 nM BAK”, the “AUC for Experiment-1 (Mean)” value is listed as 2.3973, the “AUC for Experiment-2 (Mean)” value was determined as 4.6314 and the “AUC for Experiment-3 (Mean)” value is on record as 0.7562*.
As for Ac-EDIIRNIARHYAQVGDSMDRSI-NH2 [Y(2)], the half-maximal effective concentration (EC50) came out at 1210 ± 696 nM and the “direct BAK activation compared to WT BID BH3” value is “less direct BAK activation compared to WT BID BH3”. Moreover, where the note is “1 μM peptide + 50 nM BAK”, the “AUC for Experiment-1 (Mean)” value is listed as 4.2367, the “AUC for Experiment-2 (Mean)” value is recorded as 5.3994 and the “AUC for Experiment-3 (Mean)” value came to 3.7484. Moreover, for the setting “50 μM peptide + 50 nM BAK”, the “AUC for Experiment-1 (Mean)” value is given as 8.0372, the “AUC for Experiment-2 (Mean)” value is 6.4388 and the “AUC for Experiment-3 (Mean)” value was determined as 4.7986.
As for Ac-EDIIRNWARHLAQVGDSMDRSI-NH2 [W(1)], the concentration for a half-maximal effect (EC50) was determined as 1700 ± 446 nM and the “direct BAK activation compared to WT BID BH3” value is “less direct BAK activation compared to WT BID BH3”. For the setting “1 μM peptide + 50 nM BAK”, the “AUC for Experiment-1 (Mean)” value was 5.265, the “AUC for Experiment-2 (Mean)” value was determined as 7.491 and the “AUC for Experiment-3 (Mean)” value is reported as 5.218. In addition, under “50 μM peptide + 50 nM BAK”, the “AUC for Experiment-1 (Mean)” value is 7.873, the “AUC for Experiment-2 (Mean)” value is recorded as 8.991 and the “AUC for Experiment-3 (Mean)” value is on record as 6.529.

The term EC50 denotes the midpoint of the concentration-response curve.
